Measured values: ChEMBL document CHEMBL4477224, “Antidiabetic effect, antioxidant activity, and toxicity of 3',4'-Di-O-acetyl-cis-khellactone in Streptozotocin-induced diabetic rats” (Bioorg Med Chem Lett, 2016)
Activity calls are given as the source filed them. The rule behind the calls is not given here.

Columns and labels:
[1] = Mutagenicity in Salmonella typhimurium TA102 assessed as mutagenic index at 17.30 uM/plate after 48 hrs in absence of S9 fraction by Ames test relative to control; type: toxicity; settings: salmonella enterica subsp. enterica serovar typhimurium, s9, 48 h, 17.3 µM
[2] = system: Rattus norvegicus; test: Antidiabetic activity in STZ-induced diabetic Wistar rat assessed as change in fasting blood glucose level at 15 mg/kg, po administered for 7 days post STZ challenge measured on day 14 by glucometry (reference value: 72.90 +/- 5.2 mg/dl); type: functional
[3] = Mutagenicity in Salmonella typhimurium TA98 assessed as mutagenic index at 17.30 uM/plate after 48 hrs in absence of S9 fraction by Ames test relative to control; type: toxicity; settings: salmonella enterica subsp. enterica serovar typhimurium, s9, 48 h, 17.3 µM
[4] = Mutagenicity in Salmonella typhimurium TA98 assessed as mutagenic index at 17.30 uM/plate after 48 hrs in presence of S9 fraction by Ames test relative to control; type: toxicity, subcellular; settings: salmonella enterica subsp. enterica serovar typhimurium, s9, 48 h, 17.3 µM
[5] = Mutagenicity in Salmonella typhimurium TA98 assessed as mutagenic index at 50 uM/plate after 48 hrs in presence of S9 fraction by Ames test relative to control; type: toxicity, subcellular; settings: salmonella enterica subsp. enterica serovar typhimurium, s9, 48 h
[6] = Mutagenicity in Salmonella typhimurium TA100 assessed as mutagenic index at 8.65 uM/plate after 48 hrs in presence of S9 fraction by Ames test relative to control; type: toxicity, subcellular; settings: salmonella enterica subsp. enterica serovar typhimurium, s9, 48 h
[7] = system: Rattus norvegicus; test: Antidiabetic activity in STZ-induced diabetic Wistar rat assessed as decrease in blood glucose level at 15 mg/kg, po administered for 15 days post STZ challenge measured on day 21 by glucometry relative to control; type: functional; parameters: scale not given: the % may be the effect or the level left
[8] = system: Rattus norvegicus; test: Antidiabetic activity in STZ-induced diabetic Wistar rat assessed as effect on islets of langerhans morphology at 15 mg/kg, po administered for 15 days by fluorescence microscopy; type: functional, organism-based
[9] = Mutagenicity in Salmonella typhimurium TA98 assessed as mutagenic index at 100 uM/plate after 48 hrs in presence of S9 fraction by Ames test relative to control; type: toxicity, subcellular; settings: salmonella enterica subsp. enterica serovar typhimurium, s9, 48 h
[10] = Mutagenicity in Salmonella typhimurium TA102 assessed as mutagenic index at 100 uM/plate after 48 hrs in presence of S9 fraction by Ames test relative to control; type: toxicity, subcellular; settings: salmonella enterica subsp. enterica serovar typhimurium, s9, 48 h
[11] = system: Rattus norvegicus; test: Antidiabetic activity in STZ-induced diabetic Wistar rat blood assessed as HDL level at 15 mg/kg, po administered for 15 days (reference value: 36.31 +/- 0.51 mg/dl); type: functional
[12] = Mutagenicity in Salmonella typhimurium TA102 assessed as mutagenic index at 8.65 uM/plate after 48 hrs in absence of S9 fraction by Ames test relative to control; type: toxicity; settings: salmonella enterica subsp. enterica serovar typhimurium, s9, 48 h
[13] = Mutagenicity in Salmonella typhimurium TA102 assessed as mutagenic index at 50 uM/plate after 48 hrs in absence of S9 fraction by Ames test relative to control; type: toxicity; settings: salmonella enterica subsp. enterica serovar typhimurium, s9, 48 h
[14] = system: Rattus norvegicus; test: Antidiabetic activity in STZ-induced diabetic Wistar rat assessed as increase in body weight at 15 mg/kg, po administered for 15 days post STZ challenge measured on day 21; type: functional
[15] = system: Rattus norvegicus; test: Antidiabetic activity in STZ-induced diabetic Wistar rat blood assessed as cholesterol level at 15 mg/kg, po administered for 15 days (reference value: 80.09 +/- 9.35 mg/dl); type: functional
[16] = Mutagenicity in Salmonella typhimurium TA102 assessed as mutagenic index at 34.60 uM/plate after 48 hrs in presence of S9 fraction by Ames test relative to control; type: toxicity, subcellular; settings: salmonella enterica subsp. enterica serovar typhimurium, s9, 48 h, 34.6 µM
[17] = system: Rattus norvegicus; test: Antidiabetic activity in STZ-induced diabetic Wistar rat assessed as body weight at 15 mg/kg, po administered on day 7 post STZ challenge measured immediately post dosage (reference value: 319.4 +/- 6.9 g); type: functional
[18] = Mutagenicity in Salmonella typhimurium TA102 assessed as mutagenic index at 17.30 uM/plate after 48 hrs in presence of S9 fraction by Ames test relative to control; type: toxicity, subcellular; settings: salmonella enterica subsp. enterica serovar typhimurium, s9, 48 h, 17.3 µM
[19] = Mutagenicity in Salmonella typhimurium TA102 assessed as mutagenic index at 8.65 uM/plate after 48 hrs in presence of S9 fraction by Ames test relative to control; type: toxicity, subcellular; settings: salmonella enterica subsp. enterica serovar typhimurium, s9, 48 h
[20] = Mutagenicity in Salmonella typhimurium TA98 assessed as mutagenic index at 34.60 uM/plate after 48 hrs in presence of S9 fraction by Ames test relative to control; type: toxicity, subcellular; settings: salmonella enterica subsp. enterica serovar typhimurium, s9, 48 h, 34.6 µM
[21] = Mutagenicity in Salmonella typhimurium TA100 assessed as mutagenic index at 100 uM/plate after 48 hrs in presence of S9 fraction by Ames test relative to control; type: toxicity, subcellular; settings: salmonella enterica subsp. enterica serovar typhimurium, s9, 48 h

CC(=O)O[C@@H]1c2c(ccc3ccc(=O)oc23)OC(C)(C)[C@@H]1OC(C)=O (relative stereo) [QUIANHUCOUMARIN D]
Ratio [1]: 0.7 | Activity [2]: 280.7 mg/dL | Ratio [3]: 1 | Ratio [4]: 1.2 | Ratio [5]: 1.1 | Ratio [6]: 0.9 | Activity [7]: 60.9% | Activity [8]: Active | Ratio [9]: 1.4 | Ratio [10]: 0.9 | Activity [11]: 29.77 mg/dL | Ratio [12]: 0.7 | Ratio [13]: 1.1 | Activity [14]: 45.7 g | Activity [15]: 70.84 mg/dL | Ratio [16]: 1.4 | Activity [17]: 335.3 g | Ratio [18]: 1.2 | Ratio [19]: 0.8 | Ratio [20]: 1.2 | Ratio [21]: 1
